Among the data in ChEMBL document CHEMBL1148644, “Human PEPT1 pharmacophore distinguishes between dipeptide transport and binding” (J Med Chem, 2006) are EC50 and IC50 values, retold here.

Structures are written as SMILES. pEC50, pIC50: −log10 of the molar value. Where a SMILES comes first, the peptide text is derived from it. [ ]: non-standard residue; d: D form. Tic = O=C(O)[C@@H]1Cc2ccccc2CN1 A value given as a limit tells only on which side of the number the result lay.

For one experiment, the target named is T1, Solute carrier family 15 member 1 (Homo sapiens, UniProt P46059).
T1 sequence (P46059 whole entry): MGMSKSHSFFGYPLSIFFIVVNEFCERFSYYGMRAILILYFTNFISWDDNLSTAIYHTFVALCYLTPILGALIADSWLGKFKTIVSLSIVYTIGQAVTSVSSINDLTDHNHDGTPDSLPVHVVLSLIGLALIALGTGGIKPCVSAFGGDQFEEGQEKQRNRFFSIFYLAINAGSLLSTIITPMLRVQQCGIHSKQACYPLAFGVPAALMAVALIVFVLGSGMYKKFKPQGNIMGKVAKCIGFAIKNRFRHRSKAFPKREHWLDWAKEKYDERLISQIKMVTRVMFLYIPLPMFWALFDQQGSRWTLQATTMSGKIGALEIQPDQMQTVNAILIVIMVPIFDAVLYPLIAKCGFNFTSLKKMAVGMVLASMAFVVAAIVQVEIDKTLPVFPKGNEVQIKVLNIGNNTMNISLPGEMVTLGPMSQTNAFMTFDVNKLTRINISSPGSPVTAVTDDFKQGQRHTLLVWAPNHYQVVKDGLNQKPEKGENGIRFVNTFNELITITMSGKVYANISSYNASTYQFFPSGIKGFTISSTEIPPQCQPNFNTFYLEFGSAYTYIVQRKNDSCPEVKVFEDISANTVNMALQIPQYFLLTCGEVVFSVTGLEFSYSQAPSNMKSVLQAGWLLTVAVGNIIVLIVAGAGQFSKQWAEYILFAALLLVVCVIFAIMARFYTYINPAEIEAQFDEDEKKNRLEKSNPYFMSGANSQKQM
The experiment in a line: Activation of human PEPT1 expressed in MDCK cells. Type of experiment: functional, cell-based.
Settings: not given; call rule not given here
In turn, `C[C@H](NC(=O)[C@@H](N)Cc1ccc(O)cc1)C(=O)O` showed a negative-log EC50 (pEC50) of 4.00.
The compound `N[C@@H](CC(=O)O)C(=O)N[C@@H](CC(=O)O)C(=O)O` (H-Asp-Asp-OH) showed a pEC50 of 3.00.
As for `CC(C)[C@H](N)C(=O)N[C@H](C(=O)O)C(C)C` [VAL-VAL] (H-Val-Val-OH), the pEC50 was 4.15.
Still for that read-out and setting: the result for `N[C@@H](Cc1ccc(O)cc1)C(=O)N[C@@H](Cc1ccc(O)cc1)C(=O)O` (H-Tyr-Tyr-OH) reads 4.22.
On the same count and under the same terms, in the case of `CC(C)C[C@H](NC(=O)[C@@H]1CCCN1)C(=O)O` (H-Pro-Leu-OH) it was 3.60.
On the same count and under the same terms, in the case of `CC(C)[C@H](NC(=O)[C@@H](N)Cc1c[nH]c2ccccc12)C(=O)O` (H-Trp-Val-OH) it was 4.30; in that of `N[C@@H](Cc1ccccc1)C(=O)NCC(=O)O` (H-Phe-Gly-OH), 3.96; in that of `CC(C)C[C@H](NC(=O)CN)C(=O)O`, 3.77.
In turn, `CC(C)[C@H](NC(=O)[C@@H](N)CCCCN)C(=O)O` (H-Lys-Val-OH) had a negative-log EC50 (pEC50) of 3.85.
Compound `NCC(=O)N1CCC[C@H]1C(=O)O` [GLYCYL PROLINE] (H-Gly-Pro-OH) gave a negative-log EC50 (pEC50) of 3.89.
The same measure, in the same setting: in the case of `N[C@@H](CC(=O)O)C(=O)NCC(=O)O` (H-Asp-Gly-OH) it was 3.36; in that of `C[C@H](N)C(=O)N[C@@H](Cc1ccc(O)cc1)C(=O)O` (H-Ala-Tyr-OH), 4.22; in that of `N[C@@H](CCC(=O)O)C(=O)NCC(=O)O` (H-Glu-Gly-OH), 3.29.

In the next experiment the target is T1, Solute carrier family 15 member 1. As to the kind of experiment: Binding affinity to human PEPT1 assessed as inhibition of [14C]Gly-Sar uptake in MDCK cells. The settings on record: mdck. The class given is functional, cell-based.
Consider `NCC(=O)NCC(=O)NCC(N)=O` (H-Gly-Gly-Gly-NH2), for which the IC50 entry was “Not Active”.
As to `NCC(=O)NCC(=O)NCC(=O)NCC(=O)O` (H-GGGG-OH), the IC50 result was “Not Active”.
For the compound `NC(=O)[C@@H]1Cc2ccccc2CN1C(=O)[C@@H](N)Cc1ccc(O)cc1` (H-Tyr-[Tic]-NH2), the IC50 result is “Not Active”.
Turning to `NC(=O)CNC(=O)[C@@H](N)Cc1ccc(O)cc1`, the IC50 entry is on record as “Not Active”.
Turning to `CC(=O)N[C@@H](Cc1ccccc1)C(=O)N[C@@H](Cc1ccc(O)cc1)C(N)=O` (Ac-Phe-Tyr-NH2), the IC50 entry is “Not Active”.
As for `NCC(=O)N[C@@H](Cc1ccc(O)cc1)C(N)=O` (H-Gly-Tyr-NH2), the IC50 result is listed as “Not Active”.
As to `NCC(=O)N[C@@H](Cc1ccccc1)C(N)=O` (H-Gly-Phe-NH2), the IC50 result was “Not Active”.
Consider `NCCC[C@H](NC(=O)[C@@H](N)CCCN)C(=O)O`, for which the IC50 entry is listed as “Not Active”.

Staying with this experiment, now noted: read-out: IC50.
For `NCCCC[C@H](NC(=O)[C@@H]1CCCN1)C(=O)O` (H-Pro-Lys-OH), the negative logarithm of the IC50 (pIC50) was < 1.80.
For `NCCCC[C@H](NC(=O)[C@@H](N)CCCCN)C(=O)O`, the negative-log IC50 (pIC50) was 1.96.
Regarding `NC(=O)[C@H](Cc1ccc(O)cc1)NC(=O)[C@@H](N)Cc1ccc(O)cc1` (H-Tyr-Tyr-NH2), the pIC50 is 2.04.
For the compound `O=C(O)CNC(=O)[C@@H]1CCCN1` (H-Pro-Gly-OH), the pIC50 is < 1.80.
Same read-out and setting: in the case of `NC(N)=NCCC[C@H](NC(=O)[C@@H](N)CCCN=C(N)N)C(=O)O` (H-Arg-Arg-OH) it was 2.14; in that of `N[C@@H](Cc1c[nH]c2ccccc12)C(=O)N[C@@H](Cc1c[nH]c2ccccc12)C(=O)O` (H-Trp-Trp-OH), 3.60.
Take `N[C@@H](Cc1c[nH]c2ccccc12)C(=O)N[C@@H](Cc1ccc(O)cc1)C(=O)O` (H-Trp-Tyr-OH): the pIC50 is 4.10.
In the case of `C[C@H](NC(=O)[C@@H](N)Cc1ccc(O)cc1)C(=O)O`, the negative-log IC50 (pIC50) is 3.96.
On the same count and under the same terms, in the case of `N[C@@H](CC(=O)O)C(=O)N[C@@H](CC(=O)O)C(=O)O` (H-Asp-Asp-OH) it was 3.20.
For `CC(C)[C@H](N)C(=O)N[C@H](C(=O)O)C(C)C` [VAL-VAL] (H-Val-Val-OH), the pIC50 was 3.68.
For the compound `N[C@@H](Cc1ccc(O)cc1)C(=O)N[C@@H](Cc1ccc(O)cc1)C(=O)O` (H-Tyr-Tyr-OH), the pIC50 is 4.22.
Still for that read-out and setting: the result for `CC(C)C[C@H](NC(=O)[C@@H]1CCCN1)C(=O)O` (H-Pro-Leu-OH) reads 3.21; that for `CC(C)[C@H](NC(=O)[C@@H](N)Cc1c[nH]c2ccccc12)C(=O)O` (H-Trp-Val-OH), 4.05.
On the same count and under the same terms, the result for `N[C@@H](Cc1ccccc1)C(=O)NCC(=O)O` (H-Phe-Gly-OH) reads 3.77.
The same measure, in the same setting: in the case of `CC(C)C[C@H](NC(=O)CN)C(=O)O` it was 4.15; in that of `CC(C)[C@H](NC(=O)[C@@H](N)CCCCN)C(=O)O` (H-Lys-Val-OH), 3.60.
In the case of `NCCCC[C@H](N)C(=O)N[C@@H](Cc1c[nH]c2ccccc12)C(=O)O` (H-Lys-Trp-OH), the pIC50 was 3.18.
Take `NCC(=O)N1CCC[C@H]1C(=O)O` [GLYCYL PROLINE] (H-Gly-Pro-OH): the pIC50 is 3.48.
Take `N[C@@H](CC(=O)O)C(=O)NCC(=O)O` (H-Asp-Gly-OH): the pIC50 is 3.09.
On the same count and under the same terms, in the case of `NCCCC[C@H](N)C(=O)N[C@@H](CCCN=C(N)N)C(=O)O` (H-Lys-Arg-OH) it was 2.14; in that of `C[C@H](N)C(=O)N[C@@H](Cc1ccc(O)cc1)C(=O)O` (H-Ala-Tyr-OH), 3.77.
Consider `N[C@@H](CCC(=O)O)C(=O)NCC(=O)O` (H-Glu-Gly-OH), for which the pIC50 was 3.41.
Regarding `N[C@@H](Cc1ccc(O)cc1)C(=O)N[C@@H](Cc1c[nH]c2ccccc12)C(=O)O` (H-Tyr-Trp-OH), the pIC50 is 4.00.
`NCCCC[C@H](NC(=O)[C@@H](N)CCCN=C(N)N)C(=O)O` (H-Arg-Lys-OH): the negative-log IC50 (pIC50) is 2.09.
